The assay concerns P. falciparum 3D7 gametocytes. The assay can be described thus: alamarBlue gametocyte viability assay, strain 3D7. The format is cell-based, Plasmodium falciparum. The settings on record: for Max Resp: DMSO set at 0%, 100 nM epoxomicin set at -100%. (In general: The colour change of resazurin is a common sign of viable cells or microbes.)
Setting [1] is: Malaria Box, stages III-V 3D7 gametocytes.
The mark [2] stands for this setting: Malaria Box, stages III-V 3D7 gametocytes, 11 concentrations, 1:3 dilution, read-out: IC50.
The mark [3] stands for this setting: Malaria Box, stages III-V 3D7 gametocytes, 11 concentrations, 1:3 dilution.

Molecules are shown by their SMILES. Like-named read-outs stand apart in the source and are kept apart here.

Turning to `CCC1(C)CC(CCNCc2ccccc2O)(c2ccc(C)cc2)CCO1` (stereo not drawn) [MMV019406], the “reduction of gametocyte viability” value (Malaria Box screen) is given as > 75%. In addition, the “Max Resp” value (Malaria Box) is listed as -82%. The “Curve Class” value under setting [1] is recorded as -1.1. Besides, the IC50 (commonly the midpoint of a concentration-inhibition curve) by setting is: under setting [2], 0.418 µM; (P. falciparum 3D7 gametocytes, mean of at least 3 independent experiments, read-out: Gametocyte IC50) < 1 µM.
`COc1ccc(-c2cn3c(C(=O)Nc4ccccc4Cl)c(-c4ccccc4)c4c3n2CCCC4)cc1` [MMV020403]: where the note is “Malaria Box”, the “Max Resp” value is recorded as -73%. The “Curve Class” value under setting [1] is listed as -2.2. Besides, the IC50 under setting [2] was 23.5 µM.
With `Cc1ccnc(NC(c2cccc(OCc3ccccc3)c2)c2ccc3cccnc3c2O)c1` (stereo not drawn) [MMV000720], for the setting “Malaria Box”, the “Max Resp” value is -112%. Besides, the “Curve Class” value under setting [1] is -2.1. Also, the half-maximal inhibitory concentration (IC50) under setting [2] was 13.2 µM.
As for `C=CCc1c(C)nc2ccccc2c1O` [MMV006913], the “Max Resp” value (Malaria Box) is on record as 0%. Further, under setting [1], the “Curve Class” value was found to be 4. Moreover, the IC50 result under setting [3] was “Inactive”.
Regarding `CCCC(c1nnnn1C1CCCCC1)N1CCN(C(=O)c2ccco2)CC1.Cl` (stereo not drawn) [MMV666093], the “Max Resp” value (Malaria Box) is listed as -10%. Further, the “Curve Class” value under setting [1] is given as 4. Besides, under setting [3], the IC50 result is recorded as “Inactive”.
As for `COc1ccc(-c2nc(NC(=O)CS(=O)(=O)c3ccc(F)cc3)sc2C)cc1` [MMV665915], under “Malaria Box”, the “Max Resp” value is -44%. Also, under setting [1], the “Curve Class” value is on record as -2.2. The concentration for half-maximal inhibition (IC50) entry under setting [3] is on record as “Inactive”.
`Cc1sc2ncnc(Sc3nc4ccccc4[nH]3)c2c1C` [MMV019266]: the “Max Resp” value (Malaria Box) is on record as -72%. The “Curve Class” value under setting [1] is given as -2.2. In addition, the IC50 under setting [2] came out at 11.8 µM.
Consider `CC1CCN(Cc2ccc(NC(=O)c3cc4ccc5cccnc5c4[nH]3)cc2)CC1` [MMV020549], for which the “Max Resp” value (Malaria Box) was -75%. For the same compound, under setting [1], the “Curve Class” value is -2.2. Further, under setting [2], the IC50 was found to be 14.8 µM.
Turning to `CCC(=O)N1CCN(c2ccc(-n3c(=O)ccc4cnc5ccc(-c6ccc(N)nc6)cc5c43)cc2C(F)(F)F)CC1` [WWH030], the IC50 (Plasmodium falciparum, 3D7, 3D7 gametocytes, stages III-V, high throughput viability assay, read-out: IC50 against gametocytes) stood at 0.009 µM.
As for `COc1ccccc1N1C(=N)SC(=Cc2ccc(OCc3ccccc3F)cc2)C1=O` [MMV007199], for the setting “Malaria Box”, the “Max Resp” value is given as -2%. The “Curve Class” value under setting [1] is reported as 4. Further, under setting [3], the IC50 result is given as “Inactive”.
Take `CNCCCNc1ccnc2cc(Cl)ccc12` [MMV020500]: under “Malaria Box”, the “Max Resp” value was -63%. In addition, the “Curve Class” value under setting [1] is listed as -1.2. The IC50 under setting [2] was 0.235 µM.
On the same counts, the results for `CCOc1c(Cl)cc(CNC(C)C(O)c2ccccc2)cc1OC` (stereo not drawn) [MMV665857] are -77%, -2.2 and 14.8 µM.
On the same counts, the results for `Oc1c(C(Nc2ccccn2)c2cccc(Oc3ccccc3)c2)ccc2cccnc12` (stereo not drawn) [MMV665814] are -107%, -2.1 and 9.35 µM.
For `COc1nc(Nc2ccc(C(C)C)cc2)nc(OC)n1` [MMV007808], under “Malaria Box”, the “Max Resp” value is recorded as -9%. Under setting [1], the “Curve Class” value is listed as 4. Besides, the concentration for half-maximal inhibition (IC50) result under setting [3] is listed as “Inactive”.
Consider `CCOc1ccccc1CNC(=O)C1c2ccccc2C(=O)N(CC(C)C)C1c1cccs1` (stereo not drawn) [MMV000653], for which, under “Malaria Box”, the “Max Resp” value is -49%. The “Curve Class” value under setting [1] is -2.2. In addition, the IC50 result under setting [3] is listed as “Inactive”.
Take `COc1cccc(C2(C)Nc3ccccc3-c3nc4ccccc4n32)c1` (stereo not drawn) [MMV396719]: the “Max Resp” value (Malaria Box) is on record as -71%. The “Curve Class” value under setting [1] is -2.2. For the same compound, under setting [2], the half-maximal inhibitory concentration (IC50) came out at 23.5 µM.
Take `COc1ccc(C2C(C(=O)Nc3cccc(OC)c3)c3ccccc3C(=O)N2C2CCCCC2)cc1` (stereo not drawn) [MMV008455]: the “Max Resp” value (Malaria Box) is -89%. Under setting [1], the “Curve Class” value is -2.1. Further, the IC50 under setting [2] worked out at 16.6 µM.
On to `CCn1c(SCC(=O)Nc2cc(C(F)(F)F)ccc2Cl)nc2ccccc2c1=O` [MMV666103], for which the “Max Resp” value (Malaria Box) is recorded as -11%. Further, the “Curve Class” value under setting [1] is reported as 4. Moreover, under setting [3], the IC50 result is on record as “Inactive”.
The like results for `CCCCOc1ccc(C(=O)Nc2cc(C)on2)cc1` [MMV007906] were, in that order, 12%, 4 and “Inactive”.
On the same counts, the results for `CCCCc1ccc(NS(=O)(=O)c2cc3c4c(c2)CCN4C(=O)CC3)cc1` [MMV001255] are 2%, 4 and “Inactive”.
Take `CCOc1ccc2nc(C)cc(Nc3ccc(Br)cc3)c2c1` [MMV006522]: the “Max Resp” value (Malaria Box) is recorded as -59%. Also, the “Curve Class” value under setting [1] was -2.2. Further, the IC50 under setting [2] came out at 29.6 µM.
On the same counts, the results for `Cc1cccc(-n2ncc3c(O)nc(-n4nc(C)cc4NC(=O)c4cc5ccccc5o4)nc32)c1` [MMV403679] are -64%, -2.2 and 18.7 µM.
With `Nc1ccc(-c2nc3cc(Oc4ccc(Oc5ccc6[nH]c(-c7ccc(N)cc7)nc6c5)cc4)ccc3[nH]2)cc1` [MMV011895], the “Max Resp” value (Malaria Box) is -78%. For the same compound, the “Curve Class” value under setting [1] is recorded as -2.2. Further, the half-inhibitory concentration (IC50) under setting [2] is 18.7 µM.
For the compound `Cn1c(=O)c2cc(C(=O)NCCCN3CCCCCC3)sc2c2ccccc21` [MMV019313], the “Max Resp” value (Malaria Box) is -46%. Also, the “Curve Class” value under setting [1] was -2.2. Besides, the IC50 entry under setting [3] is “Inactive”.
On the same counts, the results for `O=C(Nc1ccc(-c2nc3ccccc3[nH]2)cc1)c1ccc(Cl)c(Cl)c1` [MMV665840] are -16%, 4 and “Inactive”.
For the compound `COc1ccc(NC(=O)C2c3ccccc3C(=O)N(CC(C)C)C2c2cccs2)cc1Cl` (stereo not drawn) [MMV000642], the “Max Resp” value (Malaria Box) was -75%. The “Curve Class” value under setting [1] is listed as -2.2. Besides, under setting [2], the IC50 came to 9.35 µM.
The like results for `CCCCCCc1cc2cc(-c3nc4ccccc4[nH]3)c(=Nc3ccccc3C)oc2cc1O` [MMV666597] were, in that order, -27%, -1.4 and 2.09 µM.
On the same counts, the results for `CC(C)(C)c1ccc(O)c(CNC2CCCCC2)c1` [MMV665785] are -50%, -1.2 and 0.148 µM.
Regarding `COc1ccc(C(=O)C2CC2c2ccc(Cl)cc2)cc1` (stereo not drawn) [MMV665924], the “Max Resp” value (Malaria Box) is listed as -23%. Further, under setting [1], the “Curve Class” value is listed as 4. Besides, the IC50 result under setting [3] is “Inactive”.
On the same counts, the results for `Cc1cc(=O)oc2c1ccc1oc(C(=O)c3ccccc3)c(C)c12` [MMV006753] are 3%, 4 and “Inactive”.
On to `CC(C)=CCN1CCC(C(=O)Nc2ccc(-c3nc4ccccc4[nH]3)cc2)CC1` [MMV665946], for which the “Max Resp” value (Malaria Box) is reported as -77%. Besides, under setting [1], the “Curve Class” value is -2.2. For the same compound, the IC50 under setting [2] worked out at 14.8 µM.
On the same counts, the results for `COc1cc2cc(C(=O)Nc3ccccc3)c(N)nc2cc1OC` [MMV006767] are -53%, -2.2 and 37.2 µM.
As for `Nc1ccn([C@@H]2O[C@H](CO)[C@@H](O)[C@H]2O)c(=O)n1` [MMV638723], the “Max Resp” value (Malaria Box) was -5%. Moreover, the “Curve Class” value under setting [1] is on record as 4. Also, the IC50 entry under setting [3] is “Inactive”.
The like results for `CCOC(=O)c1c[nH]c2ccc(CC)cc2c1=O` [MMV007116] were, in that order, 32%, 4 and “Inactive”.
Take `Cc1cc(C)c2c(c1)OCN(Cc1ccccc1Cl)C2` [MMV006558]: the “Max Resp” value (Malaria Box) is reported as -44%. Moreover, the “Curve Class” value under setting [1] was -1.2. In addition, under setting [2], the IC50 came out at 0.935 µM.
Take `O=C(NC1CCN(Cc2ccccc2)CC1)c1cc(-c2ccncc2)nc2ccc(Cl)cc12` [MMV020275]: the “Max Resp” value (Malaria Box) was -48%. Besides, under setting [1], the “Curve Class” value is recorded as -2.2. Moreover, the half-maximal inhibitory concentration (IC50) entry under setting [3] is reported as “Inactive”.
For the compound `COc1cc(CNCCc2ccc(Cl)cc2)cc(OC)c1O` [MMV128432], the “Max Resp” value (Malaria Box) is -81%. Further, under setting [1], the “Curve Class” value is given as -2.1. Besides, the IC50 under setting [2] amounted to 11.8 µM.
For the compound `O=C(NC1CCCCC1)C(c1cccs1)N(CCc1ccccc1)C(=O)c1ccco1` (stereo not drawn) [MMV666106], the “Max Resp” value (Malaria Box) is -29%. Further, the “Curve Class” value under setting [1] was 4. Further, the IC50 entry under setting [3] is “Inactive”.
On the same counts, the results for `FC(F)(F)c1ccc(Nc2nnnc3ccccc23)cc1` [MMV665935] are 25%, 4 and “Inactive”.
On to `CN1CCN(c2nc(Nc3ccc(O)cc3)nc3ccccc23)CC1.Cl` [MMV000986], for which the “Max Resp” value (Malaria Box) was -93%. For the same compound, under setting [1], the “Curve Class” value was -1.1. In addition, the IC50 under setting [2] came to 6.62 µM.
On to `O=C(Nc1ccc(CN2CCOCC2)cc1)c1ccc(-c2ccc(Br)cc2)o1` [MMV665901], for which the “Max Resp” value (Malaria Box) is reported as -41%. Under setting [1], the “Curve Class” value is -2.4. Moreover, the IC50 entry under setting [3] is listed as “Inactive”.
The like results for `Fc1ccc2[nH]c3c(NCCCN4CCOCC4)ncnc3c2c1` [MMV019871] were, in that order, -42%, -2.2 and “Inactive”.
With `CCc1ccc(CNCC(O)c2ccccc2)cc1.Cl` (stereo not drawn) [MMV665812], the “Max Resp” value (Malaria Box) is given as -74%. Further, the “Curve Class” value under setting [1] is given as -1.2. In addition, under setting [2], the IC50 amounted to 5.26 µM.
With `CCCCC(O)(c1ccc(Cl)cc1)C(CN1CCOCC1)c1ccc(Cl)cc1.Cl` (stereo not drawn) [MMV000619], for the setting “Malaria Box”, the “Max Resp” value is listed as -51%. Besides, the “Curve Class” value under setting [1] was -2.2. The IC50 entry under setting [3] is recorded as “Inactive”.
As to `Cl.Cn1c(=O)n(C)c2cc(CNCCNc3ccnc4cc(Cl)ccc34)ccc21` [MMV665875], the “Max Resp” value (Malaria Box) was -41%. For the same compound, the “Curve Class” value under setting [1] is reported as -1.2. For the same compound, the IC50 under setting [2] was found to be 0.372 µM.
The like results for `COc1ccc(C(=O)C(CCC(CNC(C)(C)C)C(=O)c2ccc(OC)cc2)CNC(C)(C)C)cc1` (stereo not drawn) [MMV007591] were, in that order, -109%, -1.1 and 2.64 µM.

Values taken from publication PMC3894558, “Chemical signatures and new drug targets for gametocytocidal drug development” (Scientific Reports, 2014).
